Several values for one entry are separate records, joined by “and”; a condition that tells them apart may be missing. Equal values may be shown once. Results filed as inconclusive are left out. Activity calls are given as the source filed them.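 Rule for the calls: active = fitted half-maximal concentration of signal decrease at or below twice the sample's top tested concentration; inconclusive = flat curve between -70 and -30 percent, or poor fit; inactive = flat within 30 percent, signal rise, or potency above limit.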
target: T. gondii ME49Luc in IFN-y HeLa, luciferase, 72 h; test: inhibitors of Toxoplasma growth in IFN-γ-primed HeLa – cell-based, ME49Luc, luciferase, 72 h, dose response (AID 1259418)

SMILES | AC50
CN(C)C(=O)c1ccc(-c2ccc3c(c2)[C@@H]2[C@@H](CCN2C(=O)C2CCCC2)[C@@H](CO)N3C)cc1 | 21.1 µM
CCOc1ccccc1-c1nc(CN(c2cccc(OC)c2)S(=O)(=O)c2ccccc2)c(C)o1 | > 39 µM (inactive)
CCCCNC(=O)CCC1N=C2c3ccccc3N=C(SCc3ccccc3Cl)N2C1=O (stereo unspecified) | 24.1 µM
Fc1ccc(Nc2nc(SCc3ccc(Cl)cc3)nc3ccccc23)cc1F | 17.3 µM
O=C(Cc1ccccn1)N1CC(=O)N2[C@H](CO)[C@@H](c3ccc(C#CCC4CCCC4)cc3)[C@H]2C1 | 15.8 µM
Nc1ncnc2c1ncn2[C@@H]1O[C@H](C[C@@H](N)CC[C@H](N)C(=O)O)[C@@H](O)[C@H]1O | 0.907 µM
CCOc1ccc(-c2nc(CN(c3ccc(OCC)cc3)S(=O)(=O)c3ccccc3)c(C)o2)cc1 | 17.1 µM
O=C(Cc1cccnc1)N1CC(=O)N2[C@H](C1)[C@@H](c1ccc(/C=C/c3ccccc3)cc1)[C@@H]2CO | 19.8 µM
COc1ccc(S(=O)(=O)N2CCc3c([nH]c4ccccc34)C2c2cc(F)ccc2F)cc1 (stereo unspecified) | 17.1 µM
O=C(Cc1ccccn1)N1CC(=O)N2[C@H](CO)[C@@H](c3ccc(C#CCC4CCCC4)cc3)[C@@H]2C1 | 9.77 µM and 15.5 µM
COCCn1c(=S)[nH]c2cc(C(=O)N3CCC(O)(c4cccc(C(F)(F)F)c4)CC3)ccc2c1=O | 34.1 µM
Cc1cc(C2CCCN2Cc2cn(C(C)C)c3ccccc23)no1 (stereo unspecified) | 35.1 µM
Fc1ccc(Nc2nc(SCc3ccccc3Cl)nc3ccccc23)cc1F | 11.3 µM
COc1ccc2c(c1)NC1(CCN(C(=O)c3ccc(F)cc3)CC1)c1cccn1-2 | > 20 µM (inactive)
CCOc1ccccc1-c1nc(CN(c2ccccc2OC)S(=O)(=O)c2ccccc2C)c(C)o1 | 8.83 µM
COc1cc2nc(N3CCN(C(=O)c4ccco4)CC3)nc(N)c2cc1OC | 18.4 µM
Cc1cccc(-c2ccc([C@@H]3[C@H](CO)N4CCCCN(S(=O)(=O)c5ccccc5F)C[C@@H]34)cc2)c1 | 16.6 µM and 10.7 µM
Fc1cccc(CSc2nc(NCc3ccc(Cl)cc3)c3ccccc3n2)c1 | 14 µM
Cc1ccccc1S(=O)(=O)N1CCCCN2[C@H](C1)[C@H](c1ccc(C#CCN(C)C)cc1)[C@@H]2CO | 18.6 µM
Cc1ccc(-c2nc(Cn3c(=O)c4c(C)cc(C)nc4n(-c4ccccc4)c3=O)c(C)o2)cc1 | 30.9 µM
CCOc1ccc(N(Cc2nc(-c3ccc(C)cc3)oc2C)S(=O)(=O)c2cccs2)cc1 | 5.31 µM
Cc1ccc(-c2cc(O)c3c(c2)CN(C(=O)CCN2CCCO2)CCO3)s1 | 13.5 µM
CC(C)c1cc(C2CCCN2Cc2c[nH]c3ccccc23)on1 (stereo unspecified) | 7.79 µM and 14 µM

SMILES | AC50
Cc1oc(-c2cccc(Cl)c2)nc1CN1CCN(C(=O)Nc2ccc(F)cc2)CC1 | 24.1 µM
O=C(Cc1ccncc1)N1CCCCN2[C@@H](CO)[C@H](c3ccc(C#Cc4ccccc4F)cc3)[C@@H]2C1 | 13.5 µM and 17.9 µM
O=C(CCC1N=C2c3ccccc3N=C(SCc3cc(=O)n4cc(Cl)ccc4n3)N2C1=O)NCc1cccs1 (stereo unspecified) | 32 µM
O=C(NCc1cccnc1)C1CCN(Cc2cc3ccccc3n2Cc2ccc(F)cc2)CC1 | 38.3 µM
CCCCC(CC)CNC(=O)CC1Nc2c3ccccc3nc(=S)n2C1=O (stereo unspecified) | 17.9 µM
Cc1ccc(N(Cc2nc(-c3ccccc3)oc2C)S(=O)(=O)c2cccs2)cc1 | 3.53 µM
COc1ccccc1N(Cc1nc(-c2cccc(C)c2)oc1C)S(=O)(=O)c1ccccc1 | 13.3 µM
CC(C)c1ccc(S(=O)(=O)N2CCC3(CC2)NCCN=C3NCc2ccc3c(c2)OCO3)cc1 | 33.6 µM
Cc1ccc(CSC2=Nc3ccccc3C3=NC(CCC(=O)NCCc4ccccc4)C(=O)N23)cc1 (stereo unspecified) | 30.8 µM
CCC(C)Nc1nc(-c2ccc(OC)cc2)nc2ccccc12 (stereo unspecified) | > 39 µM (inactive)
OC1(c2cccc(C(F)(F)F)c2)CCN(Cc2ccc3[nH]ccc3c2)CC1 | 33.5 µM
O=C(CC1N=C2c3ccccc3N=C(SCc3ccccc3Cl)N2C1=O)NCCc1ccccc1 (stereo unspecified) | 15.9 µM
COc1ccc(N2CC(NC(=O)C(=O)c3c[nH]c4ccccc34)CC2=O)cc1 (stereo unspecified) | 28.3 µM
COc1cccc(C#Cc2ccc([C@@H]3[C@H](C#N)N(C(=O)c4ccccn4)[C@H]3CO)cc2)c1 | 20.7 µM
Cc1ccccc1-c1nc(CN2CCN(C(=O)NC3CCCC3)CC2)c(C)o1 | > 39 µM (inactive)
CC(C)(C)c1ccc(CSC2=Nc3ccccc3C3=NC(CC(=O)NCc4ccco4)C(=O)N23)cc1 (stereo unspecified) | 27.4 µM
Cc1ccc(-c2coc(-c3ccc(NS(=O)(=O)c4ccc(Br)cc4C)cc3)n2)c(C)c1 | 26.7 µM
N#C[C@@H]1N[C@H](CO)[C@H]1c1ccc(-c2cccc(F)c2)cc1 | 26.3 µM
Cc1cnn(C(C)C(=O)N2CCc3[nH]nc(-c4ccc(F)c(F)c4)c3C2)c1 (stereo unspecified) | > 20 µM (inactive)
COc1ccc(-c2nc(NC3CC3)c3ccccc3n2)cc1 | 14.9 µM
COc1ccccc1CNC(=O)CC1N=C2c3ccccc3N=C(SCc3ccccc3Cl)N2C1=O (stereo unspecified) | 20.4 µM
CC(C)C#Cc1ccc([C@@H]2[C@@H](CO)N3C(=O)CN(S(=O)(=O)c4ccccc4)C[C@H]23)cc1 | 19.2 µM
COc1ccc(-c2nc(Nc3ccc(OC)cc3OC)c3ccccc3n2)cc1 | 13.3 µM
